These are literature values, as cited in publication PMC7938295 (Biomedical Reports, 2021).

The data set has as its target DPP4 (Homo sapiens, UniProt P27487). The conditions noted are these: read-out: DPP4 Ki.

Sequence of DPP4 (P27487 whole entry): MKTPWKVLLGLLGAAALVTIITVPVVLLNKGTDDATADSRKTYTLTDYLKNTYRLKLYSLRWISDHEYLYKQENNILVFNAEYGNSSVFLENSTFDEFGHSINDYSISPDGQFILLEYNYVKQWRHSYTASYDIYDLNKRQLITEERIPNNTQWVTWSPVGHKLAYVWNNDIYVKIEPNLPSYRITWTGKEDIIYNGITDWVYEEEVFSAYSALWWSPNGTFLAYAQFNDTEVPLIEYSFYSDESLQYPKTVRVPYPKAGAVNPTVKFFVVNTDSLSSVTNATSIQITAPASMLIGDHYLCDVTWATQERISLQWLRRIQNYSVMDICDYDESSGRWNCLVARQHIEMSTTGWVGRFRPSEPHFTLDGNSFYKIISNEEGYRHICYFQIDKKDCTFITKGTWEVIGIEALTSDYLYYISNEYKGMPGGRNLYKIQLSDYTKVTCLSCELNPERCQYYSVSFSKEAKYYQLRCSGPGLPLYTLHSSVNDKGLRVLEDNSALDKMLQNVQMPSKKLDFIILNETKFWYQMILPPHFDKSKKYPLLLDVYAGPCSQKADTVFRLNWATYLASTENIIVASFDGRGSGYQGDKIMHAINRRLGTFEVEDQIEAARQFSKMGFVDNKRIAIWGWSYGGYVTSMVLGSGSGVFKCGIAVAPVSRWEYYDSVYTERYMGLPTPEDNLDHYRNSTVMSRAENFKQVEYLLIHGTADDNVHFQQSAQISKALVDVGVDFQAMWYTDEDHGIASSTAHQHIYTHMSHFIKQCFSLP

Turning to `O=c1cc(-c2ccccc2)oc2ccccc12` [flavone], the Ki is 18.6 µM.
